# Test results published in US20240101699A1, “MODULATION OF CD46 CELL SURFACE EXPRESSION AND THERAPEUTIC USE THEREOF” (The Regents of the University of California, priority 2021, published 2024).
# T1: CD46 (human, UniProt P15529 35-392)
# T1 construct: whole, on cells; also called cell surface CD46
# T1 sequence (looked up): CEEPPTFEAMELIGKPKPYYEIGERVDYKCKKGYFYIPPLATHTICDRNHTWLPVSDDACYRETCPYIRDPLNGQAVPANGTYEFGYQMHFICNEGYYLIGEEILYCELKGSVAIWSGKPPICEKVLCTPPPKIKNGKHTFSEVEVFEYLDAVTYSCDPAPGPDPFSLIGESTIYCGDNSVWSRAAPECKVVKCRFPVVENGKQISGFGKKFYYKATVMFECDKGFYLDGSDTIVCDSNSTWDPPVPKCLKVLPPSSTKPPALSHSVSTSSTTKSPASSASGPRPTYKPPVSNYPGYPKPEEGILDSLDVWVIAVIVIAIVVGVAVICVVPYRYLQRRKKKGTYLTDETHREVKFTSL
# B1: YS5 (antibody, human IgG1, lambda, V domains shown)
# VH: QVQLVQSGGGVVQPGRSLRLACAASGLTVNNYAMHWVRQAPGKGLEWVAVISYDGNNKYYADSVKGRFTISRDNSKNTLYLQMNSLRAEDTAVYYCAKGGGYFDLWGRGTLVTVSS
# VL: QSVLTQPPSVSGAPGQRVTISCTGSSSNIGAGYDVHWYQQLPGTAPKLLIYGNNNRPSGVPDRFSGSKSGTSASLAITGLQAEDEADYYCSSYTSGTWLFGGGTKLTVLG
# notes: The format used in the assay is not otherwise stated; also called YS5FL; anti-CD46 antibody YS5
# Experiments:
# [1] = system: CD46 cell surface expression on RPMI8226 cells; test: CD46 cell surface expression on RPMI8226 cells by FACS / flow cytometry; assay type: cell-based; conditions: for CD46 upregulation on RPMI8226 cells: 7-day exposure to varying concentrations, FACS on day-7; for CD46 expression (FACS): RPMI8226 cells treated with IMiDs for 3 and 10 days; for CD46 cell surface expression (MFI, flow cytometry): RPMI8226, 7 days 37° C.
# Method: Example 1: CD46 upregulation by exposure to pomalidomide and lenalidomide (FIGS. 1-2). The effect of pomalidomide and lenalidomide exposure to multiple myeloma (RPMI8226) cells was studied. RPMI8226 cells were treated with IMiDs (Pomalidomide and Lenalidomide) for 3 and 10 days (FIG. 1). CD46 expression was analyzed by FACS. CD38 was also measured as a reference. IMiDs-induced cell surface upregulation was observed only to selective antigens, e.g., CD46 but not CD38.
# FACS was performed on day-7. […] FACS was performed on day-14.
# FIG. 6: The multiple myeloma cell line RPMI8226 was incubated with 10 μM pomalidamide (pom) for 14 days, washed, and further incubated with 10 nM dexamethasone (dex) for 7 days. Cell surface CD46 expression was assessed by flow cytometry. MFI: median fluorescence intensity. Multiple group comparison was performed using One-way ANOVA. ** p<0.01; ****p<0.0001.
# Methods: RMPI8226 cells were exposed to varying concentrations of the Stat3 inhibitor C188-9 and the glucocorticoid receptor inhibitor mifepristone for 7 days at 37° C. in culture media, and cell surface CD46 expression is detected by flow cytometry using the anti-CD46 antibody YS5 followed by AlexaFluo-617 labeled anti-human Fc secondary antibody. MFI (median fluorescence intensity) was recorded and analyzed by One-way ANOVA.
# CD46 = target: T1, CD46; test: flow cytometry on RPMI8226 cells with a labelled anti-human Fc secondary antibody
# Method: MFI (median fluorescence intensity) was recorded and analyzed by One-way ANOVA.
molecule,measurement,setting,value
Nc1cccc2c1CN(C1CCC(=O)NC1=O)C2=O (stereo not drawn) [lenalidomide],CD46 upregulation on RPMI8226 cells,[1],upregulation
same,CD46 expression (FACS),[1],upregulation
CC#C[C@]1(O)CC[C@H]2[C@@H]3CCC4=CC(=O)CCC4=C3[C@@H](c3ccc(N(C)C)cc3)C[C@@]21C [mifepristone],"CD46 cell surface expression (MFI, flow cytometry)",[1]; mifepristone at high concentrations (50 μM),inhibits
Nc1cccc2c1C(=O)N(C1CCC(=O)NC1=O)C2=O (stereo not drawn) [pomalidomide],CD46 upregulation on RPMI8226 cells,[1],upregulation
same,CD46 expression (FACS),[1],upregulation
same,CD46 upregulation on multiple myeloma cell surface,[1]; prior exposure for a short period (7-10 days),rather persistent CD46 upregulation
"COc1ccc(S(=O)(=O)Nc2cc(-c3c(O)ccc4ccccc34)c(O)c3ccccc23)cc1 [C188-9, N-(1′, 2-Dihydroxy-1,2′-binaphthalen-4′-yl)-4-methoxybenzenesulfonamide]","CD46 cell surface expression (MFI, flow cytometry)",[1]; high concentrations (50 μM),inhibits
same,"CD46 cell surface expression (MFI, flow cytometry)",[1]; low/mid concentrations (10 and 20 μM),stimulates
B1,binding result,CD46,binds
